Source: PubChem BioAssay AID2060893 (Molecular Pharmacology Branch, DTP, NCI, 2025)
pIC50: −log10 of the molar value.

Test system: K86415-001-R-J1-PDC complex spheroids, viability
Assay: Anticancer human tumor K86415-001-R-J1-PDC patient-derived lung adenocarcinoma cell line growth inhibition [RAS]
Conditions: for pIC50: curve of first compound; for viability, T/C: stronger effect = lower value
In short: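 Agents were tested in combination matrices in half-log decrements from a top concentration at or near clinical Cmax (10 microM if undetermined). Targets were multi-cell spheroids of tumour lines plus HUVEC and MSC stromal cells.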

[1] = second compound 0.000949 µM, first compound 0.0316 µM
[2] = second compound 0.000949 µM, first compound 0.1 µM
[3] = second compound 0.000949 µM, first compound 0.316 µM
[4] = second compound 0.000949 µM, first compound 1 µM
[5] = second compound 0.000949 µM, first compound 3.16 µM
[6] = second compound 0.000949 µM, first compound 10 µM
[7] = second compound 0.003 µM, first compound 0.0316 µM
[8] = second compound 0.003 µM, first compound 0.1 µM
[9] = second compound 0.003 µM, first compound 0.316 µM
[10] = second compound 0.003 µM, first compound 1 µM
[11] = second compound 0.003 µM, first compound 3.16 µM
[12] = second compound 0.003 µM, first compound 10 µM
[13] = second compound 0.00949 µM, first compound 0.0316 µM
[14] = second compound 0.00949 µM, first compound 0.1 µM
[15] = second compound 0.00949 µM, first compound 0.316 µM
[16] = second compound 0.00949 µM, first compound 1 µM
[17] = second compound 0.00949 µM, first compound 3.16 µM
[18] = second compound 0.00949 µM, first compound 10 µM
[19] = second compound 0.03 µM, first compound 0.0316 µM
[20] = second compound 0.03 µM, first compound 0.1 µM
[21] = second compound 0.03 µM, first compound 0.316 µM
[22] = second compound 0.03 µM, first compound 1 µM
[23] = second compound 0.03 µM, first compound 3.16 µM
[24] = second compound 0.03 µM, first compound 10 µM
[25] = second compound 0.0949 µM, first compound 0.0316 µM
[26] = second compound 0.0949 µM, first compound 0.1 µM
[27] = second compound 0.0949 µM, first compound 0.316 µM
[28] = second compound 0.0949 µM, first compound 1 µM
[29] = second compound 0.0949 µM, first compound 3.16 µM
[30] = second compound 0.0949 µM, first compound 10 µM
[31] = second compound 0.3 µM, first compound 0.0316 µM
[32] = second compound 0.3 µM, first compound 0.1 µM
[33] = second compound 0.3 µM, first compound 0.316 µM
[34] = second compound 0.3 µM, first compound 1 µM
[35] = second compound 0.3 µM, first compound 3.16 µM
[36] = second compound 0.3 µM, first compound 10 µM
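Further: spheroids exposed to agents for seven days before readout.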

Compound `CC1(O)CCCC1n1c(=O)c(C(F)F)cc2cnc(NC3CCN(S(C)(=O)=O)CC3)nc21` (centres undefined) + CCn1c(-c2cccnc2C(C)OC)c2c3cc(ccc31)N1CCOC(CC(NC(=O)C(C(C)C)N(C)C(=O)C3(F)CCN(C(=O)C#CC(C)(C)N(C)C)CC3)C(=O)N3CCCC(N3)C(=O)OCC(C)(C)C2)C1 has a pIC50 (second compound 0.000949 µM) of over 7.50, a pIC50 (second compound 0.003 µM) of over 7.50 and a pIC50 (second compound 0.00949 µM) of over 7.50. For the same compound, the pIC50 (second compound 0.03 µM) was over 7.50, the pIC50 (second compound 0.0949 µM) was over 7.50 and the pIC50 (second compound 0.3 µM) was over 7.50. For the same compound, the viability, T/C [1] was 30.1%, the viability, T/C [2] was 32.6% and the viability, T/C [3] was 21.6%. The viability, T/C [4] was 38.8%, the viability, T/C [5] was 48.3% and the viability, T/C [6] was 4.79%. The viability, T/C [7] was 12.8%, the viability, T/C [8] was 11.3% and the viability, T/C [9] was 14.8%. The viability, T/C [10] was 17.3%, the viability, T/C [11] was 25% and the viability, T/C [12] was 4.45%. For the same compound, the viability, T/C [13] was 13.9%, the viability, T/C [14] was 10.5% and the viability, T/C [15] was 12.7%. For the same compound, the viability, T/C [16] was 18.9%, the viability, T/C [17] was 19.8% and the viability, T/C [18] was 4.71%. It also gave a viability, T/C [19] of 13.7%, a viability, T/C [20] of 13.3% and a viability, T/C [21] of 14.6%. The viability, T/C [22] was 15.6%, the viability, T/C [23] was 18.1% and the viability, T/C [24] was 4.45%. The viability, T/C [25] was 11.3%, the viability, T/C [26] was 15% and the viability, T/C [27] was 11.6%. The viability, T/C [28] was 20.2%, the viability, T/C [29] was 14.9% and the viability, T/C [30] was 5.12%. The viability, T/C [31] was 13%, the viability, T/C [32] was 14.5% and the viability, T/C [33] was 12.7%. For the same compound, the viability, T/C [34] was 14.6%, the viability, T/C [35] was 17.6% and the viability, T/C [36] was 3.94%.

In the case of `CCC(CC)c1cc(NC2CCC(N)C2)n2nccc2n1` (centres undefined) + CCn1c(-c2cccnc2C(C)OC)c2c3cc(ccc31)N1CCOC(CC(NC(=O)C(C(C)C)N(C)C(=O)C3(F)CCN(C(=O)C#CC(C)(C)N(C)C)CC3)C(=O)N3CCCC(N3)C(=O)OCC(C)(C)C2)C1, the pIC50 (second compound 0.000949 µM) was 7.50, the pIC50 (second compound 0.003 µM) was over 7.50 and the pIC50 (second compound 0.00949 µM) was over 7.50. The pIC50 (second compound 0.03 µM) was over 7.50, the pIC50 (second compound 0.0949 µM) was over 7.50 and the pIC50 (second compound 0.3 µM) was over 7.50. The viability, T/C [1] was 37.5%, the viability, T/C [2] was 40.4% and the viability, T/C [3] was 39.2%. The viability, T/C [4] was 61.9%, the viability, T/C [5] was 2.95% and the viability, T/C [6] was 2.43%. It also gave a viability, T/C [7] of 14.9%, a viability, T/C [8] of 14.6% and a viability, T/C [9] of 13%. For the same compound, the viability, T/C [10] was 20.1%, the viability, T/C [11] was 3.32% and the viability, T/C [12] was 3.8%. It also gave a viability, T/C [13] of 15.2%, a viability, T/C [14] of 12.3% and a viability, T/C [15] of 15%. The viability, T/C [16] was 20.3%, the viability, T/C [17] was 2.22% and the viability, T/C [18] was 3.83%. It also gave a viability, T/C [19] of 12.6%, a viability, T/C [20] of 12.1% and a viability, T/C [21] of 15.5%. It also gave a viability, T/C [22] of 13.3%, a viability, T/C [23] of 1.81% and a viability, T/C [24] of 3.54%. The viability, T/C [25] was 12.4%, the viability, T/C [26] was 13.6% and the viability, T/C [27] was 15.6%. It also gave a viability, T/C [28] of 13.9%, a viability, T/C [29] of 1.94% and a viability, T/C [30] of 3.52%. It also gave a viability, T/C [31] of 11.8%, a viability, T/C [32] of 14.9% and a viability, T/C [33] of 12.4%. The viability, T/C [34] was 9.04%, the viability, T/C [35] was 2.28% and the viability, T/C [36] was 3.42%.
